Laboratory results taken from patent EP1263420B1 (priority 2000, dated 2001).
“Also recorded” adds a separate entry of the source.

Tests used:
[1] = Body weight, mortality and toxicity of A/J mice exposed to isotretinoin aerosols; format: in vivo
Method: Mice were injected with one of three carcinogens and were exposed by inhalation in groups of 21 to three graded concentrations of isotretinoin or vehicle for 10 (urethane-treated mice) or 16 (NNK- and BaP-treated mice) weeks.
Male A/J mice (Jackson Laboratories) 6-8 weeks old were quarantined a minimum of 7 days. […] At 9-10 weeks of age, the mice were administered single 0.2 ml doses (20 mg urethane in saline, 0.6 mg of NNK in saline, or 2 mg of BaP in tricaprylin) by intraperitoneal injection. Daily 45-min exposures to isotretinoin aerosol or vehicle were started the next day.
Solutions were aerosolized using a Pari LC-plus nebulizer (Pari, Richmond, VA). Animals were exposed in nose-only exposure units designed to provide a fresh supply of the test atmosphere to each animal, independent from other animals. […] The units consisted of multi-tier modular sections, each tier containing eight exposure ports located peripherally around a central delivery plenum. During exposures, animals were restrained in unstoppered polycarbonate tubes (C&H Technologies, Westwood, NJ) through which a flow of aerosol, 350-500 ml/min per mouse, passed from the chamber. The tubes were tapered on one end to approximately fit the shape of the animal's head and the diameter of the cylindrical portion of the cone was such that the animals could not turn in the cones. Each cone was fastened to the inhalation chamber with the nose portion of the cone protruding through a gasket into the chamber, permitting the animal to breathe the test or control atmosphere emanating from within the central plenum.

liver RARs = assay: Western blot of rat liver samples after inhaled 13-cis RA; format: in vivo
Method: Rats (n=97) (Sprague-Dawley from Charles River) were divided into five experimental groups and were given varying amounts of 13-cis RA by inhalation. The experimental groups were as follows (Table 4) :1.Vehicle (10/9 mix of PEG 300 and Ethanol with 0.5% of ascorbic acid and 0.5% phosphatidyl choline) control, day 1: rats (19) inhaled vehicle for 2 hr for one day; 2. High dose 13-cis RA, day 1: rats (22) inhaled a solution containing 13-cis-RA at a concentration of 104µg/liter (projected daily inhaled dose 10mg/kg body weight) for 2 hr for one day; 3. High dose 13-cis RA, day 17: rats (22) inhaled the same solution as in 2 for 2 hr each day for 17 days; 4. Vehicle control, day 28: rats (16) inhaled vehicle as for group 1 for a period of 28 days; 5. Middle dose 13-cis RA, day 28: rats (18) inhaled a solution containing 13-cis-RA at a concentration of 31µg/liter (projected daily inhaled dose 3mg/kg body weight) for 2 hr for each of 28 days.
Male rats (n=23) (Sprague-Dawley from Charles River) were divided into six experimental groups and were given varying amounts of 13-cis RA through an inhalant apparatus once daily for different times each day for 14 days. The experimental groups were as follows (Table 1) :1.Vehicle control : rats (3) inhaled vehicle for 240 minutes; 2. Low dose 13-cis RA: rats (4) inhaled a solution containing 13-cis RA at a concentration of 62.2µg/liter (inhaled dose 115.0µg/kg body weight) in 5 minutes; 3. Low-Middle dose 13-cis RA : rats (4) inhaled a solution containing 13-cis RA at a concentration of 62.2µg/liter (inhaled dose 334.4µg/kg body weight) in 15 minutes; 4.Middle dose 13-cis RA: rats (4) inhaled a solution containing 13-cis RA at a concentration of 62.2µg/liter (inhaled dose 1012.3µg/kg body weight) in 45 minutes; 5. Middle-High dose 13-cis RA : rats (4) inhaled a solution containing 13-cis RA at a concentration of 62.2µg/liter (inhaled dose 2843.4µg/kg body weight) in 120 minutes; 6. High dose 13-cis RA : rats (4) inhaled a solution containing 13-cis RA at a concentration of 62.2µg/liter (inhaled dose 5935.6µg/kg body weight) in 240 minutes. […]

TGase II = TGase II activity in cultured MCF-7 cells; format: cell-based, human
Method: MCF-7 cells were seeded at a density of 1.5 x 10^5 cells/ml medium (500ml DMEM + 56.2ml FBS + 5.6m1 AB/AM) in 6cm diameter dishes for 24 hours and treated with either DMSO, RA, or 13-cis RA at 10^-6 M and grown to confluence (about 72 hours). Cells were harvested and Transglutaminase II activity was measured as described below. Nebulizer solution, inhalation procedures, details of animal housing are described below.
Cultured cells were placed in 100 µl scraping buffer [A: 2800µl (400µl 0.5M Na-Phosphate, 500µl 0.01M EDTA, 100µl 1M DTT , 9ml PBS total 10ml) + B:700µl (10µl 20mg/ml PMSF 790µl PBS total 800µl)] for each dish. Cells were broken by a sonicator and kept in ice until used. TGase II assay was conducted as described below and previously {8217}.
Enzyme assay mixtures were prepared by adding 80µl of SUBSTRATE mixture (322.8µl H2O, 120µl 0.5M NaBorate, 60µl 0.01M EDTA, 60µl 0.1M CaCl2, 6µl 1M DTT, 240µl dimethyl casein, 30µl Triton X-100, 1.2µl [^3H]-Putrescine, 120µl Putrescine) to 20µl sample, 20µl scraping buffer for blank control , 20 µl (18µl scraping buffer + 2µl TGase II) for positive control. Samples were mixed in 15ml tubes, the tubes were shaken before putting them into a 28°C water bath for 30 minutes. Reactions were slowed down in an ice bath. 80µl of the incubation mixture was adsorbed onto paper disks. These were immediately dropped into cold 10% TCA (0.1% Putrescine) and washed with agitation for 7 minutes, followed by 2 additional washes with 5% TCA (0.05% putrescine) for 5~7 minutes, and once more with cold (-20°C) 95% ethanol for 5 minutes. Paper disks were dried and placed into 5ml Aquasol, and counted in a Liquid Scintillation Counter. Protein concentration determination was conducted by the Bradford method.

lung metaplasia = details: Oral doses of I mg/kg, smokers; cited from earlier work
[2] = tested on: urethane-induced lung cancer; details: orally administered, over 300 mg/kg weekly; cited from earlier work

## CC1=C(/C=C/C(C)=C/C=C/C(C)=C\C(=O)O)C(C)(C)CCC1 [13-cis RA, 13-cis-Retinoic Acid]
[1]; mid dose
  tolerated until (mice began losing weight): ~ 12 wks
[1]; mid dose, NNK- and BaP-treated mice, end of exposure
  weights below those of vehicle controls: 11%
[1]; mouse, in vivo, inhaled or intranasal, 0.081 mg/kg, mid dose (2/63), read-out: mice died before the end of exposure
  mortality: 3%
[1]; mouse, in vivo, inhaled or intranasal, 2 mg/kg, high dose, daily exposures for the first two weeks, read-out: mice died
  mortality at 336 h: ~35%
Liver RARs; inhaled 13-cis RA, rats, summary statement
  effect on liver RARs: failed to have any significant effect on liver RARs; also recorded: has no effect on liver RARs
Liver RARs; rat liver, experiment A (same rats as Fig 2A), not shown
  increase in liver RARs: failed to show any increase in RARs
Liver RARs; rat liver, experiment B, 5 to 240 minutes daily, 14 days, not shown
  response of liver RARs: not responsive
TGase II; Homo sapiens, MCF7, 72 h, read-out: stimulating TGase II activity
  fold induction at 1 µM: 6.1
TGase II; MCF-7 cells, 10^-6 M, 72 hours, DMSO control 0.183
  TGase II Activity: 1.118 +/- 0.016 picomoles/µg protein/30 minutes
Lung metaplasia
  reversal of lung metaplasia: failed even to reverse lung metaplasia
[2]
  prevention of urethane-induced lung cancer: failed to prevent urethane-induced lung cancer
